Results: the supplement of paper PMC12420376

System: OVCAR8
Test: cancer cell viability relative to untreated control; higher = less cytotoxic
Conditions: 72 h
Procedure: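 KURAMOCHI or OVCAR8 cells were grown in monoculture or in co-culture with WI38 or patient-derived 030F fibroblasts and treated for 72 h with a dose matrix of carboplatin combined with birinapant or vorinostat (doses in nM). Cancer cell viability was measured by CK8/18 immunofluorescence imaging and expressed as % of untreated control, given as mean with SD.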

O=C(O)C1(C(=O)O)CCC1.[NH2-].[NH2-].[Pt+2] [Carboplatin] + CC[C@H](NC(=O)[C@H](C)NC)C(=O)N1C[C@@H](O)C[C@H]1Cc1c(-c2[nH]c3cc(F)ccc3c2C[C@@H]2C[C@H](O)CN2C(=O)[C@H](CC)NC(=O)[C@H](C)NC)[nH]c2cc(F)ccc12 [Birinapant]
cancer cell viability [%]
Conditions	partner drug concentration 0 nM	partner drug concentration 0.1 nM	partner drug concentration 1 nM	partner drug concentration 10 nM	partner drug concentration 100 nM	partner drug concentration 1000 nM
carboplatin concentration 10 nM, co-cultured fibroblast: 030F	95.9	93.4	86.9	85.6	53.2	11.3
carboplatin concentration 10 nM, co-cultured fibroblast: WI38	112	112	98.5	99.2	59.9	9.28
carboplatin concentration 10 nM, co-cultured fibroblast: none (monoculture)	100	107	102	96.1	68.1	14.5
carboplatin concentration 100 nM, co-cultured fibroblast: 030F	97.7	89.9	85.8	92.3	46	12.3
carboplatin concentration 100 nM, co-cultured fibroblast: WI38	103	101	102	98.1	52.4	10.8
carboplatin concentration 100 nM, co-cultured fibroblast: none (monoculture)	101	99.5	101	103	71.7	13.4
carboplatin concentration 1000 nM, co-cultured fibroblast: 030F	96.9	83.5	90.8	96.9	50.5	14.7
carboplatin concentration 1000 nM, co-cultured fibroblast: WI38	107	98.1	104	92.6	56.6	9.2
carboplatin concentration 1000 nM, co-cultured fibroblast: none (monoculture)	101	102	98.6	105	79.7	16.3
carboplatin concentration 1e+05 nM, co-cultured fibroblast: 030F	23.2	34.9	41.2	34.2	15.9	8.74
carboplatin concentration 1e+05 nM, co-cultured fibroblast: WI38	10.6	36.2	51.3	40.3	21.4	3
carboplatin concentration 1e+05 nM, co-cultured fibroblast: none (monoculture)	23.1	61	58.4	60.6	46.2	6.42
carboplatin concentration 10000 nM, co-cultured fibroblast: 030F	52.3	72.4	90.8	85.1	34.3	9.13
carboplatin concentration 10000 nM, co-cultured fibroblast: WI38	41.6	82.3	89.1	95.9	49.7	7.2
carboplatin concentration 10000 nM, co-cultured fibroblast: none (monoculture)	56.5	90.3	92.5	100	64.8	12.6

O=C(O)C1(C(=O)O)CCC1.[NH2-].[NH2-].[Pt+2] [Carboplatin] + O=C(CCCCCCC(=O)Nc1ccccc1)NO [Vorinostat]
cancer cell viability [%]
Conditions	partner drug concentration 0 nM	partner drug concentration 1 nM	partner drug concentration 10 nM	partner drug concentration 100 nM	partner drug concentration 1000 nM	partner drug concentration 10000 nM
carboplatin concentration 10 nM, co-cultured fibroblast: 030F	95.9	98.7	97.7	61.9	16.7	1.47
carboplatin concentration 10 nM, co-cultured fibroblast: WI38	112	95.4	93.8	57.2	13	-0.353
carboplatin concentration 10 nM, co-cultured fibroblast: none (monoculture)	100	118	106	77.6	12.5	-1.11
carboplatin concentration 100 nM, co-cultured fibroblast: 030F	97.7	88.3	82.6	53.7	17.5	0.669
carboplatin concentration 100 nM, co-cultured fibroblast: WI38	103	98.1	88.4	53.3	11.5	-0.268
carboplatin concentration 100 nM, co-cultured fibroblast: none (monoculture)	101	108	109	58.4	20.6	-0.748
carboplatin concentration 1000 nM, co-cultured fibroblast: 030F	96.9	93	94.1	50.7	15.3	1.7
carboplatin concentration 1000 nM, co-cultured fibroblast: WI38	107	96.1	86	45.4	14.6	-0.251
carboplatin concentration 1000 nM, co-cultured fibroblast: none (monoculture)	101	111	102	63.4	17.2	-1.67
carboplatin concentration 1e+05 nM, co-cultured fibroblast: 030F	23.2	30.2	32.9	22.8	15.3	0.46
carboplatin concentration 1e+05 nM, co-cultured fibroblast: WI38	10.6	34.2	33.1	22.9	13.3	-0.83
carboplatin concentration 1e+05 nM, co-cultured fibroblast: none (monoculture)	23.1	57.5	51.6	24.6	17.1	-3.4
carboplatin concentration 10000 nM, co-cultured fibroblast: 030F	52.3	78.3	64.7	37.2	19.1	1.01
carboplatin concentration 10000 nM, co-cultured fibroblast: WI38	41.6	74.9	68.8	47.1	19	-0.481
carboplatin concentration 10000 nM, co-cultured fibroblast: none (monoculture)	56.5	89.7	89.7	65.2	26.8	-0.768
